Source: patent US20220372542A1, “DETECTION OF ANALYTES BY PROTEIN SWITCHES” (priority 2019, published 2022)

Key:
[1] = biological target: glucose dehydrogenase protein switch GDH-2008, GDH-105 variant (Bacillus subtilis, UniProt P12310); experiment: screen of GDH variants for glucose activity against analytes; assay type: biochemical; details: methotrexate 5.42 mM, pH 7.0, gluconic acid by RapidFire MS
Procedure: (§1) Glucose dehydrogenase (GDH) variant libraries comprising GDH polypeptides developed using GDH-105 (Codexis, Redwood, Calif.) as a backbone were prepared. Approximately 2800 GDH variants were prepared. Glucose activity was determined by either NADH kinetic assay using a spectrophotometer set at UV 340 or UV 360 at various time intervals or by endpoint measurement of gluconic acid using RapidFire mass spectrometer.

[2] = biological target: glucose dehydrogenase protein switch GDH-2004, GDH-105 variant (Bacillus subtilis, UniProt P12310); experiment: as above; assay type: biochemical
Procedure: as §1

[3] = biological target: glucose dehydrogenase protein switch GDH-2007, GDH-105 variant (Bacillus subtilis, UniProt P12310); experiment: as above; assay type: biochemical; details: methotrexate 5.42 mM, pH 7.0, gluconic acid by RapidFire MS
Procedure: as §1

[4] = biological target: glucose dehydrogenase protein switch GDH-2009, GDH-105 variant (Bacillus subtilis, UniProt P12310); experiment: as above; assay type: biochemical
Procedure: as §1

[5] = biological target: glucose dehydrogenase protein switch GDH-2010, GDH-105 variant (Bacillus subtilis, UniProt P12310); experiment: as above; assay type: biochemical; details: methotrexate 5.42 mM, pH 7.0, gluconic acid by RapidFire MS
Procedure: as §1

[6] = biological target: T1, glucose dehydrogenase GDH-105 (control, backbone) (Bacillus subtilis, UniProt P12310, E198G/I165M/P194T); experiment: warfarin inhibition of evolved GDH sensors (Table 13); assay type: biochemical; details: NAD+ 10 mM, glucose 5 mM, 33° C.
Procedure: (§2) Evolved Warfarin sensors. GDH-105, GDH-2016, GDH-2025, GDH-2026, GDH-2027, and GDH-2028 glucose-responsive active areas were prepared using a single-layer active area system. The GDH was obtained from Codexis, Redwood City, Calif. The active area (0.33 mm^2) was coated onto a carbon working electrode in a single layer composition (Table 8). Following deposition of the active area, the active area was cured for three days at room temperature.
(§3) Experimental procedure. Testing of the GDH-105, GDH-2016, GDH-2025, GDH-2026, GDH-2027, and GDH-2028 sensors was conducted by immersing the electrode in a 100 mM PBS buffer solution at 33° C. NAD^+(10 mM) supplied to a test beaker containing PBS buffer followed by the addition of glucose (5 mM).

[7] = biological target: glucose dehydrogenase protein switch GDH-2025 (Rd3bb), variant of GDH-2016, C96F, SEQ ID NO: 1 (Bacillus subtilis, UniProt P12310, A159T/E170K/E96F/F155A/I165M/P194T/Q252L/V156S); experiment: as above; assay type: biochemical; details: NAD+ 10 mM, glucose 5 mM, 100 mM PBS, 33° C.
Procedure: as §2, §3

[8] = biological target: glucose dehydrogenase protein switch GDH-2026, variant of GDH-2016, C96F; I141V, SEQ ID NO: 7 (Bacillus subtilis, UniProt P12310, A159T/E170K/E96F/F155A/I141V/I165M/P194T/Q252L/V156S); experiment: as above; assay type: biochemical; details: NAD+ 10 mM, glucose 5 mM, 100 mM PBS, 33° C.
Procedure: as §2, §3

[9] = biological target: glucose dehydrogenase protein switch GDH-2028 (Rd4bb), variant of GDH-2025, C96F; L252V, SEQ ID NO: 15 (Bacillus subtilis, UniProt P12310, A159T/E170K/E96F/F155A/I165M/P194T/Q252V/V156S); experiment: as above; assay type: biochemical; details: NAD+ 10 mM, glucose 5 mM, 100 mM PBS, 33° C.
Procedure: as §2, §3

[10] = biological target: glucose dehydrogenase protein switch GDH-2027, variant of GDH-2025, C96F; A173G, SEQ ID NO: 12 (Bacillus subtilis, UniProt P12310, A159T/A173G/E170K/E96F/F155A/I165M/P194T/Q252L/V156S); experiment: as above; assay type: biochemical; details: NAD+ 10 mM, glucose 5 mM, 100 mM PBS, 33° C.
Procedure: as §2, §3

[11] = biological target: glucose dehydrogenase protein switch GDH-2013, GDH-105 variant (Bacillus subtilis, UniProt P12310); experiment: screen of GDH variants for glucose activity against analytes; assay type: biochemical; details: warfarin 2.08 mM, pH 7.0, NADH kinetics at UV360
Procedure: as §1

[12] = biological target: T1, glucose dehydrogenase GDH-105 (control, backbone); experiment: warfarin inhibition of GDH sensor (FIGS. 9A and 9B); assay type: biochemical; details: 10, 30, 80, 180, and 300 uM warfarin; NAD+ 5 mM, glucose 1 mM, 33° C.
Procedure: Warfarin Sensor. Experimental GDH-105 and GDH-2016 glucose-responsive active areas were prepared using a single-layer active area system. The GDH was obtained from Codexis, Redwood City, Calif. The active area was coated onto a carbon working electrode in a single layer composition (Table 8). Following deposition of the active area, the active area was cured for three days at RT.
(§4) Experimental procedure. Testing of the GDH-105 and GDH-2016 sensors was conducted by immersing the electrode in a 100 mM PBS buffer solution at 33° C. NAD^+ (5 mM) supplied to a test beaker containing PBS buffer followed by the addition of glucose (1 mM).

[13] = biological target: T2, glucose dehydrogenase protein switch GDH-2016 (Rd2bb), GDH-105 variant, SEQ ID NO: 11 (Bacillus subtilis, UniProt P12310, A159T/E170K/E96C/F155A/I165M/P194T/Q252L/V156S); experiment: biochemical; details: read-out: inhibition at 300 uM warfarin
T2 construct: electrode sensor and screen
Procedure: Experimental GDH-105 and GDH-2016 glucose-responsive active areas were prepared using a single-layer active area system. The GDH was obtained from Codexis, Redwood City, Calif. The active area was coated onto a carbon working electrode in a single layer composition (Table 8). Following deposition of the active area, the active area was cured for three days at RT.
as §4

[14] = biological target: T2, glucose dehydrogenase protein switch GDH-2016 (Rd2bb), GDH-105 variant, SEQ ID NO: 11; assay type: biochemical; details: warfarin 2.08 mM, pH 7.0, NADH kinetics at UV360
Procedure: as §1

[15] = biological target: glucose dehydrogenase protein switch GDH-2005, GDH-105 variant (Bacillus subtilis, UniProt P12310); experiment: screen of GDH variants for glucose activity against analytes; assay type: biochemical; details: cortisol 2.08 mM, pH 7.5, NADH kinetics at UV340
Procedure: as §1

[16] = methotrexate 5.42 mM, pH 7.0, gluconic acid by RapidFire MS
[17] = warfarin 2.08 mM, pH 7.0, NADH kinetics at UV360

CN(Cc1cnc2nc(N)nc(N)c2n1)c1ccc(C(=O)N[C@@H](CCC(=O)O)C(=O)O)cc1 [Methotrexate]
Activate/Inhibit (glucose activity) [1]: Inhibit | Activate/Inhibit (glucose activity) [2, 16]: Inhibit | Activate/Inhibit (glucose activity) [3]: Inhibit | Activate/Inhibit (glucose activity) [4, 16]: Inhibit | Activate/Inhibit (glucose activity) [5]: Inhibit

CC(=O)CC(c1ccccc1)c1c(O)c2ccccc2oc1=O (stereo not shown) [Warfarin, warfarin]
GDH inhibition at 0.3 mM WF ([6]; 0.3 mM WF, 100 mM PBS): 5% | inhibition to increasing warfarin concentrations ([6]; 10, 30, 80, 180, and 300 uM warfarin): remained unaffected | GDH inhibition at 0.3 mM WF [7]: 79% | GDH inhibition at 0.3 mM WF [8]: 78% | GDH inhibition at 0.3 mM WF [9]: 84% | GDH inhibition at 0.3 mM WF [10]: 79% | Activate/Inhibit (glucose activity) [2, 17]: Inhibit | Activate/Inhibit (glucose activity) [4, 17]: Inhibit | Activate/Inhibit (glucose activity) [11]: Inhibit | inhibition of the sensor to increasing warfarin concentrations [12]: not affected | inhibition at 300 µM [13]: ~55% | Activate/Inhibit (glucose activity) [14]: Inhibit

C[C@]12CCC(=O)C=C1CC[C@@H]1[C@@H]2[C@@H](O)C[C@@]2(C)[C@H]1CC[C@]2(O)C(=O)CO [Cortisol]
Activate/Inhibit (glucose activity) ([2]; cortisol 2.08 mM, pH 7.5, NADH kinetics at UV340): Inhibit | Activate/Inhibit (glucose activity) [15]: Inhibit
